US20260158158A1, “ANTIBODY-DRUG CONJUGATE, PREPARATION METHOD THEREFOR AND USE THEREOF” (HANGZHOU ADCORIS BIOPHARMA CO., LTD, priority 2023, published 2026)

Experiments:
Format in all cases: in vivo, BALB/c nude mice
[1] = tested on: Pancreatic cancer cell BXPC-3; test: Tumor growth inhibition in BXPC-3 CDX model (nude mouse xenograft); conditions: BIW × 3 weeks
Description: (§1) Method for testing tumor inhibitory activity of ADC in nude mouse xenograft model (cell-derived xenograft, CDX): Pancreatic cancer cell BXPC-3, lung adenocarcinoma cell NCI-H1975, triple-negative breast cancer cell MDA-MB-231, and esophageal squamous carcinoma cell KYSE-150 were subjected to monolayer culturing in vitro. When cell saturation reached 80%-90%, the cells were digested with trypsin-EDTA and centrifuged. The supernatant was discarded. The cells were re-suspended in PBS. The cell suspension was adjusted to an appropriate concentration. BXPC-3, NCI-H1975, MDA-MB-231, and KYSE-150 cells (2-10×10^6 cells/0.1 mL) were separately subcutaneously inoculated into BALB/c nude mice. The animals and the growth of transplanted tumors were observed regularly. When the tumor volume reached approximately 100-200 mm^3, the mice were randomly divided into groups based on tumor volume and body weight, with 6 animals per group. The animals were administered regularly via intravenous injection. Twice a week, the longer diameter a (mm) and shorter diameter b (mm) of the tumor were measured with a vernier caliper and the body weight of the mice was measured. The tumor volume (V) was calculated according to the following formula: V=½×a×b^2 (mm^3), in which a and b represented the length and width of the tumor, respectively. A growth curve was plotted. Finally, the tumor was excised and weighed. […]

[2] = tested on: esophageal squamous carcinoma cell KYSE-150; test: Tumor growth inhibition in KYSE-150 CDX model (nude mouse xenograft); conditions: 10 mg/kg iv, BIW × 2 weeks
Description: as §1

[3] = tested on: lung adenocarcinoma cell NCI-H1975; test: Tumor growth inhibition in NCI-H1975 model (nude mouse xenograft); conditions: NCI-H1975, 10 mg/kg iv, BIW × 2 weeks
Description: as §1

[4] = tested on: triple-negative breast cancer cell MDA-MB-231; test: Tumor growth inhibition in MDA-MB-231 CDX model (nude mouse xenograft); conditions: 10 mg/kg iv, BIW × 3 doses
Description: as §1

CC[C@@]1(O)C(=O)OCc2c1cc1n(c2=O)Cc2c-1nc1cc(F)c(C)c3c1c2[C@@H](NC(=O)CONC)CC3 [Compound 10]
Tumor inhibition on D33 ([1]; 0.12 mg/kg iv): 16.75%

Nc1ccn([C@@H]2O[C@H](CO)[C@@H](O)C2(F)F)c(=O)n1 [Gemcitabine]
Tumor inhibition on D33 ([1]; 90 mg/kg iv): 41.52%

CC(=O)O[C@H]1C(=O)[C@@]2(C)[C@H]([C@H](OC(=O)c3ccccc3)[C@]3(O)C[C@H](OC(=O)[C@H](O)[C@@H](NC(=O)c4ccccc4)c4ccccc4)C(C)=C1C3(C)C)[C@]1(OC(C)=O)CO[C@@H]1C[C@@H]2O [Paclitaxel]
Tumor inhibition on D21 [2]: 78.00%
Tumor inhibition on D21 [3]: 94.5%
Tumor inhibition on D25 [4]: 79.96%
